Assay: xn = mol fraction of the nth substance listed
Conditions: 100 kPa

CS(C)=O + CCCC[n+]1ccn(C)c1.[Cl-]
Conditions	speed of sound [m/s]
313.15 K, x2 = 0	1442

CS(C)=O + CC[n+]1ccn(C)c1.[Cl-]
x2 = 0
Conditions	speed of sound [m/s]
298.15 K	1496
303.15 K	1472

CCCC[n+]1ccn(C)c1.[Cl-] + CS(C)=O
313.15 K
Conditions	speed of sound [m/s]
x1 = 0.0341	1491
x1 = 0.1122	1569
x1 = 0.2433	1650
x1 = 0.3032	1674
x1 = 0.3705	1696
x1 = 0.4746	1732
x1 = 0.5997	1773
x1 = 0.7115	1794
x1 = 0.843	1816
x1 = 0.9445	1829

CC[n+]1ccn(C)c1.[Cl-] + CS(C)=O
speed of sound [m/s]
Conditions	298.15 K	303.15 K	308.15 K	313.15 K
x1 = 0.0194	–	–	1473	1455
x1 = 0.0453	1517	–	1485	–
x1 = 0.0677	1532	1509	1498	1480
x1 = 0.0984	1551	1527	1516	–
x1 = 0.1236	1563	1539	1527	1508
x1 = 0.1619	1582	1560	1547	1528
x1 = 0.2143	–	1583	1571	1550
x1 = 0.2927	–	–	–	1586
x1 = 0.3737	1675	1652	1638	1618
x1 = 0.4429	1701	1678	1665	1645
x1 = 0.5264	1730	1709	1694	1675
x1 = 0.6072	–	1736	1723	1705
x1 = 0.7477	–	1787	1776	1758
x1 = 0.7986	1828	1812	1801	1783
x1 = 0.8501	–	1833	1822	1804
x1 = 0.8944	1869	1855	1843	1826
x1 = 0.9396	1893	1880	1869	1854
x1 = 0.9694	1910	1894	1883	1868
x1 = 1	1935	1923	1918	1894
x2 = 0.0071	1929	1914	1903	1887
